From patent publication US11590134B2, “Aminopyrimidine amide autophagy inhibitors and methods of use thereof” (Deciphera Pharmaceuticals, LLC, priority 2019, dated 2023) come the findings set out here.

Assay [1] has as its target T1, ULK1 kinase (Homo sapiens, UniProt O75385).
T1 construct: purchased Eurofins 14-959
T1 sequence (O75385 with tags, fused parts or gaps): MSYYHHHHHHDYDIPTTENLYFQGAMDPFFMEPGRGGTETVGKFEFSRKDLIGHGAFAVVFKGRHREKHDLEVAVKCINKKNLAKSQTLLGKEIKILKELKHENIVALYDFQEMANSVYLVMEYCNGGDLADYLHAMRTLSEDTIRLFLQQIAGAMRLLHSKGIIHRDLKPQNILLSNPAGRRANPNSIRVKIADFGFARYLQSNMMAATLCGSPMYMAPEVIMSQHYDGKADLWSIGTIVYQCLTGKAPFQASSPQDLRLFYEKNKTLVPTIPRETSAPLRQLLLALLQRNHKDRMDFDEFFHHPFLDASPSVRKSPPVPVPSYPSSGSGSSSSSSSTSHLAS
The assay can be described thus: Biochemical assay for ULK1.2 (coupled pyruvate kinase/lactate dehydrogenase assay). The settings on record: 19 nM ULK1 (residues 1-314), myelin basic protein substrate, 1 mM ATP. The protocol:
(§1) Activity of ULK1 kinase was determined spectroscopically using a coupled pyruvate kinase/lactate dehydrogenase assay that continuously monitors the ATP hydrolysis-dependent oxidation of NADH (e.g., Schindler et al. Science (2000) 289: 1938-1942). Assays were conducted in 384-well plates (100 uL final volume) using 19 nM ULK1 (Eurofins CAT #14-959), 0.25 mg/mL myelin basic protein, 1.5 units pyruvate kinase, 2.1 units lactate dehydrogenase, 1 mM phosphoenol pyruvate, 0.28 mM NADH and 1 mM ATP in assay buffer (100 mM Tris, pH 7.5, 15 mM MgCl2, 0.5 mM DTT, 0.1% octyl-glucoside, 0.002% (w/v) BSA, and 0.002% Triton X-100). Inhibition of ULK1 was measured by adding serial diluted test compound (final assay concentration of 1% DMSO). A decrease in absorption at 340 nm was monitored continuously for 6 hours at 30° C. on a multi-mode microplate reader (BioTek). The reaction rate was calculated using the 2-3 h time frame. The reaction rate at each concentration of compound was converted to percent inhibition using controls (i.e. reaction with no test compound and reaction with a known inhibitor) and IC50 values were calculated by fitting a four-parameter sigmoidal curve to the data using Prism (GraphPad software).

A further assay addresses T2, ULK2 kinase (Homo sapiens, UniProt Q8IYT8).
T2 construct: purchased Eurofins 14-772
The assay can be described thus: Biochemical assay for ULK2 (coupled pyruvate kinase/lactate dehydrogenase assay). The settings on record: 9.7 nM ULK2 (residues 1-306), myelin basic protein substrate, 1 mM ATP; read-out: ULK2.2. The method, then:
as §1, with “of ULK2” for “of ULK1”, “using 9.7” for “using 19”, “nM ULK2” for “nM ULK1”, “CAT #14-772),” for “CAT #14-959),”

The test system of assay [2] is ULK kinase substrate ATG13 (phospho-Serine 318 ATG13) in A549 cells. The assay can be described thus: pATG13 ELISA in mutant KRas A549 cells in combination with trametinib. The settings on record: A549 (KRAS mutant) human lung cancer cells, with 250 nM trametinib, overnight. The class given is cell-based. The method, then: (§2) A549 (KRAS mutant) human lung cancer cells (6,000 cells/well) were added to a 384-well tissue-culture treated plate in 50 μL of pre-warmed DMEM medium supplemented with 10% characterized fetal bovine serum (Invitrogen, Carlsbad, Calif.), 100 units/mL penicillin G, and 100 μg/mL streptomycin and allowed to grow overnight at 37° C., 5% CO2, and 95% humidity. The following day, 10 μL of media containing trametinib or DMSO as a control was added to wells. The final concentration of trametinib in wells was 250 nM. A dose response of a test compound (0.6 μL per well) was added. DMSO (0.6 μL) was added to control wells. The plate was briefly shaken to mix wells and then incubated at 37° C. overnight. The next day, the media was aspirated and cells were washed with Dulbecco's Phosphate Buffered Saline (Gibco). Cells were lysed using MPER lysis buffer (Pierce, Rockford, Ill.) containing Halt Phosphatase and Protease Inhibitors (Pierce, Rockford, Ill.) and Phosphatase inhibitor cocktail 2 (Sigma, St. Louis, Mo.) at 4° C. for 10 minutes with shaking.
(§3) Cellular levels of phospho-Serine 318 ATG13 (pATG13) were measured via an ELISA method. Total ATG13 Antibody (Cell Signaling Cat #13273) was used to coat the wells. The plate was incubated at 4° C. overnight and washed with ELISA wash buffer (Biolegend Cat #421601). The wells were then blocked with assay diluent (Biolegend Cat #421203) for 1 hour at room temperature. Plate wells were washed with ELISA wash buffer. Cell lysate was added to wells and incubated at room temperature for 2 hours. Plate wells were washed with ELISA wash buffer. Biotinylated pS318-ATG13 antibody (Rockland Immunochemicals Cat #600-401-C49) was diluted in assay diluent and added to each well and incubated at room temperature for 1 hour. Plate wells were washed with ELISA wash buffer. Streptavidin linked to horseradish peroxidase (Thermo Fisher Cat #21140) was diluted in assay diluent and added to each well and incubated at room temperature for 1 hour. Plate wells were washed with ELISA wash buffer. High sensitivity TMB substrate (Biolegend Cat #421101) was added to each well and incubated at room temperature for 20 minutes. The reaction was stopped with 2N Sulfuric Acid. The plate was analyzed at on a plate reader measuring absorbance at 450 nm and 540 nm (background). Signal was calculated by first subtracting the background absorbance at 540 nm from the absorbance at 450 nm for each well. Next, the background corrected absorbance at 450 nm from blank wells was subtracted from test wells. Data was compared to control wells to determine % ATG13 phosphorylation. GraphPad Prism was used to calculate IC50 values.
Background: An ELISA detects its analyte on a solid surface through an enzyme-linked reagent.

Assay [3] deals with ULK kinase substrate ATG13 (phospho-Serine 318 ATG13) in MiaPaCa-2 cells. The assay can be described thus: pATG13 ELISA in mutant KRas MiaPaCa-2 cells in combination with trametinib. The class given is cell-based. The settings on record: MiaPaCa-2 human pancreatic cancer cells, with 250 nM trametinib, overnight. The method, then: as §2, with “MiaPaCa-2” for “A549 (KRAS mutant)”, “pancreatic” for “lung”, “(10000” for “(6,000”, “G,” for “G, and”, “streptomycin, and 2.5% Horse Serum” for “streptomycin”
as §3

The target of assay [4] is T3, ULK1 kinase (Homo sapiens, UniProt O75385, E37A/K38A).
T3 construct: (residues 1-283; ID NO: 2); purchased Beryllium
T3 sequence (O75385 1-283 E37A/K38A): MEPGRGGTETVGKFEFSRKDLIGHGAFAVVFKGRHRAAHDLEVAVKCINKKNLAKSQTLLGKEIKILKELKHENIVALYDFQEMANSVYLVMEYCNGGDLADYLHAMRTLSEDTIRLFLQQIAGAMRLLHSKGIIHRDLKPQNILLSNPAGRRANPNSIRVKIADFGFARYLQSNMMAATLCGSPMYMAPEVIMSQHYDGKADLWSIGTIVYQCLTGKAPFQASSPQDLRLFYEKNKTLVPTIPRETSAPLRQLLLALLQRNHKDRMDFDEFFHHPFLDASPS
The assay can be described thus: Biochemical assay for ULK1.3 (coupled pyruvate kinase/lactate dehydrogenase assay). The settings on record: 0.1 nM ULK1 (residues 1-283), peptide substrate, 1 mM ATP. The method, then: Activity of ULK1 kinase was determined spectroscopically using a coupled pyruvate kinase/lactate dehydrogenase assay that continuously monitors the ATP hydrolysis-dependent oxidation of NADH (e.g., Schindler et al. Science (2000) 289: 1938-1942). Assays were conducted in 384-well plates (100 uL final volume) using 0.1 nM ULK1 (from Beryllium), 0.075 mM peptide substrate (YANWLAASIYLDGKKK (SEQ ID NO: 5)), 1.5 units pyruvate kinase, 2.1 units lactate dehydrogenase, 1 mM phosphoenol pyruvate, 0.28 mM NADH and 1 mM ATP in assay buffer (100 mM Tris, pH 7.5, 15 mM MgCl2, 0.5 mM DTT, 0.004% (w/v) BSA, and 0.004% Triton X-100). Inhibition of ULK1 was measured by adding serial diluted test compound (final assay concentration of 1% DMSO). A decrease in absorption at 340 nm was monitored continuously for 6 hours at 30° C. on a multi-mode microplate reader (BioTek). The reaction rate was calculated using the 2-3 h time frame. The reaction rate at each concentration of compound was converted to percent inhibition using controls (i.e. reaction with no test compound and reaction with a known inhibitor) and IC50 values were calculated using software routines in Prism (GraphPad software).

The target of another assay is T4, LRRK2 kinase (Homo sapiens, UniProt Q5S007).
T4 construct: (residues 970-2528; ID NO; 4); purchased Thermo Fisher
T4 sequence (Q5S007 with tags, fused parts or gaps): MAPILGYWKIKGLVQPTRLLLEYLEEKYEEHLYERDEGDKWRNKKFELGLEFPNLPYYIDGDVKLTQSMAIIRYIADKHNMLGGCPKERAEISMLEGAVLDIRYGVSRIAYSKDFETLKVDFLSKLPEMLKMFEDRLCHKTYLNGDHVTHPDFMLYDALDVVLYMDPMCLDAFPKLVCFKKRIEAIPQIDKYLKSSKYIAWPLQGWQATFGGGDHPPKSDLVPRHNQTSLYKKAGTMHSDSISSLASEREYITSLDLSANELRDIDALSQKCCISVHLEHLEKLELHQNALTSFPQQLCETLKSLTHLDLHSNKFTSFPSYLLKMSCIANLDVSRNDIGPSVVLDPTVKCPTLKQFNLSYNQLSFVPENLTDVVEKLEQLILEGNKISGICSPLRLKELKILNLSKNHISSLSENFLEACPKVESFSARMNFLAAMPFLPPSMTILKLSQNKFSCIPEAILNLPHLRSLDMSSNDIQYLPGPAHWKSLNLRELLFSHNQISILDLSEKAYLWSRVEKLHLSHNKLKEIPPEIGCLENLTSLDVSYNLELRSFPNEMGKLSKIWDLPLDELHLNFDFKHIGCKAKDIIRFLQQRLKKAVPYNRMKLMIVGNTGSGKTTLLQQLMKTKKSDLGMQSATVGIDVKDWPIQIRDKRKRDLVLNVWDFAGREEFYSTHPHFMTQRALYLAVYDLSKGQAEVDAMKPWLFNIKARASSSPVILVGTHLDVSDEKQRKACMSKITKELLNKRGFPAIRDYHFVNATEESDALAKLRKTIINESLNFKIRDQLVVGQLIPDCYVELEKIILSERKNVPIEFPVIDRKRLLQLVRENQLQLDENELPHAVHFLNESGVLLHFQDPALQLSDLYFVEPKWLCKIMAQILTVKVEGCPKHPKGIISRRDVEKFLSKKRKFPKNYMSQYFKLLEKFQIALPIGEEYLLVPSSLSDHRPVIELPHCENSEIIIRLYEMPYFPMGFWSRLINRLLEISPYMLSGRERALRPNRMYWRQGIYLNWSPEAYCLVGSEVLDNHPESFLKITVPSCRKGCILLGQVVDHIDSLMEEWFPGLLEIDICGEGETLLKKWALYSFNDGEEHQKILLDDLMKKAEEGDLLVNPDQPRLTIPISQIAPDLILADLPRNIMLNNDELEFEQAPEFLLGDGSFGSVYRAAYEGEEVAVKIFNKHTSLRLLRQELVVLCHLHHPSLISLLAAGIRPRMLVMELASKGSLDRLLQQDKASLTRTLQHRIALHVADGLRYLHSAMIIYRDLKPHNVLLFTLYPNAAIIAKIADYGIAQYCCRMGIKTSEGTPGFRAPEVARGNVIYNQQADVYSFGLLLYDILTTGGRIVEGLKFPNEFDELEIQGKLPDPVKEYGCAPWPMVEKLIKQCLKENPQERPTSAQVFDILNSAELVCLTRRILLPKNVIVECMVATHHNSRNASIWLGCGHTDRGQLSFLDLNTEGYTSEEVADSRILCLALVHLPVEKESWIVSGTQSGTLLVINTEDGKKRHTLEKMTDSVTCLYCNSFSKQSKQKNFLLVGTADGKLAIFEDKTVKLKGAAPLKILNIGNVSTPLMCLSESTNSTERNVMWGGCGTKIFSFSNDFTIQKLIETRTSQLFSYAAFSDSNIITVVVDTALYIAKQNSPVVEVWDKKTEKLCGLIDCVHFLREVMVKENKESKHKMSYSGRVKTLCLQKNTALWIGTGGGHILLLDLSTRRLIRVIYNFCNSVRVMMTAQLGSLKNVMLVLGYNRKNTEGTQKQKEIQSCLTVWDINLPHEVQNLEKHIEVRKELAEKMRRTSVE
The assay can be described thus: Biochemical assay for LRRK2 (coupled pyruvate kinase/lactate dehydrogenase assay). The settings on record: 26.4 nM LRRK2 (residues 970-2528), peptide substrate, 1 mM ATP. The protocol:
Activity of LRRK2 kinase was determined spectroscopically using a coupled pyruvate kinase/lactate dehydrogenase assay that continuously monitors the ATP hydrolysis-dependent oxidation of NADH (e.g., Schindler et al. Science (2000) 289: 1938-1942). Assays were conducted in 384-well plates (100 uL final volume) using 26.4 nM LRRK2 (Thermo Fisher), 0.1 mM peptide substrate (RLGRDKYKTLRQIRQ (SEQ ID NO: 6)), 1.5 units pyruvate kinase, 2.1 units lactate dehydrogenase, 1 mM phosphoenol pyruvate, 0.28 mM NADH and 1 mM ATP in assay buffer (100 mM Tris, pH 7.5, 15 mM MgCl2, 0.5 mM DTT, 0.004% (w/v) BSA, and 0.004% Triton X-100). Inhibition of LRRK2 was measured by adding serial diluted test compound (final assay concentration of 1% DMSO). A decrease in absorption at 340 nm was monitored continuously for 6 hours at 30° C. on a multi-mode microplate reader (BioTek). The reaction rate was calculated using the 2-3 h time frame. The reaction rate at each concentration of compound was converted to percent inhibition using controls (i.e. reaction with no test compound and reaction with a known inhibitor) and IC50 values were calculated using software routines in Prism (GraphPad software).

T2 sequence (Q8IYT8 with tags, fused parts or gaps): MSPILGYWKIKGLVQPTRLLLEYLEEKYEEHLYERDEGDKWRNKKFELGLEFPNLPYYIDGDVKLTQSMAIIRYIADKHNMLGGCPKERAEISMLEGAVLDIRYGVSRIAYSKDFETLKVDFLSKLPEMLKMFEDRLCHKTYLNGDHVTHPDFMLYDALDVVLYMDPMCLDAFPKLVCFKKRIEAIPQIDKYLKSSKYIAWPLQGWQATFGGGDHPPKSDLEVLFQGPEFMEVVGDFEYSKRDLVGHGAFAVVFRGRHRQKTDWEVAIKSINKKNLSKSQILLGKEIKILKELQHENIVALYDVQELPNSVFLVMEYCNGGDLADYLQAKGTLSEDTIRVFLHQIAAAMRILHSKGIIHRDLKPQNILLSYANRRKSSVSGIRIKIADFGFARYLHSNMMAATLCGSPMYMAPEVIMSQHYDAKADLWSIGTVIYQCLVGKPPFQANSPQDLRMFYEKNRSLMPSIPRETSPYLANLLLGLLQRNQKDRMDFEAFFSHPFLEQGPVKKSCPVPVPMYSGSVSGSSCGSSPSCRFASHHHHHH

As for `CCc1cc(N2CCN(C)CC2)ccc1Nc1ncc(C(F)(F)F)c(NCCCNC(=O)C2CCC2)n1` [Example 1, N-(3-((2-((2-ethyl-4-(4-methylpiperazin-1-yl)phenyl)amino)-5-(trifluoromethyl)pyrimidin-4-yl)amino)propyl)cyclobutanecarboxamide], the IC50 on ULK1 kinase [1] is 1 to 25 nM; on ULK2 kinase, 25 to 100 nM; in assay [2] it was 100 to 300 nM; in assay [3], 10 to 100 nM.
With `Cc1nn(C(C)(C)C#N)cc1Nc1ncc(C(F)(F)F)c(NCCCNC(=O)C2CCC2)n1` [Example 30, N-(3-((2-((1-(2-cyanopropan-2-yl)-3-methyl-1H-pyrazol-4-yl)amino)-5-(trifluoromethyl)pyrimidin-4-yl)amino)propyl)cyclobutanecarboxamide], the IC50 lay in the range of 100 to 500 nM against ULK1 kinase [4], 500 to 20000 nM at ULK2 kinase and 1 to 100 nM on LRRK2 kinase.
